Assays:
Experiment in all cases: relative viability (nuclei count vs DMSO), 5 days (fraction); higher = more cells survive
Adavosertib + Phenformin = compound: C=CCn1c(=O)c2cnc(Nc3ccc(N4CCN(C)CC4)cc3)nc2n1-c1cccc(C(C)(C)O)n1 [Adavosertib] + N=C(N)NC(=N)NCCc1ccccc1 [Phenformin] (partner 250 µM)
In short: (§1)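 Each reported value is a median over duplicate plates. It expresses relative viability: treated-well nuclei count divided by vehicle-well nuclei count. Lung cancer cell lines in 1536-well plates were dosed by pin tool a day after seeding, alone with one drug or with a fixed anchor-drug dose plus five library-drug doses (not always all listed) in √10 steps, and nuclei were counted after 5 days.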

Adavosertib + Vorinostat = compound: C=CCn1c(=O)c2cnc(Nc3ccc(N4CCN(C)CC4)cc3)nc2n1-c1cccc(C(C)(C)O)n1 [Adavosertib] + O=C(CCCCCCC(=O)Nc1ccccc1)NO [Vorinostat] (partner 1 µM)
In short: as §1

Nelarabine + Lapatinib = compound: COc1nc(N)nc2c1ncn2[C@@H]1O[C@H](CO)[C@@H](O)[C@@H]1O [Nelarabine] + CS(=O)(=O)CCNCc1ccc(-c2ccc3ncnc(Nc4ccc(OCc5cccc(F)c5)c(Cl)c4)c3c2)o1 [Lapatinib] (partner 2 µM)
In short: as §1

Nelarabine + Vorinostat = compound: COc1nc(N)nc2c1ncn2[C@@H]1O[C@H](CO)[C@@H](O)[C@@H]1O [Nelarabine] + O=C(CCCCCCC(=O)Nc1ccccc1)NO [Vorinostat] (partner 1 µM)
In short: as §1

How did the relative viability (Adavosertib + Phenformin; first compound 0.01 µM) turn out when LOU-NH91 was run?
The relative viability was 0.661.

What about the relative viability (Adavosertib + Phenformin; first compound 0.03162 µM) of the same cell line?
The relative viability was 0.743.

And the relative viability (Adavosertib + Phenformin; first compound 0.1 µM)?
The relative viability was 0.687.

And the relative viability (Adavosertib + Phenformin; first compound 0.3162 µM)?
Its relative viability is 0.725.

And the relative viability (Adavosertib + Vorinostat; first compound 0.01 µM)?
The relative viability was 0.882.

And the relative viability (Adavosertib + Vorinostat; first compound 0.03162 µM)?
Its relative viability is 0.99.

And the relative viability (Adavosertib + Vorinostat; first compound 0.1 µM)?
The relative viability was 0.908.

What about the relative viability (Adavosertib + Vorinostat; first compound 0.3162 µM) of the same cell line?
Its relative viability is 0.896.

And the relative viability (Nelarabine + Lapatinib; first compound 0.01 µM)?
The relative viability was 0.817.

And the relative viability (Nelarabine + Lapatinib; first compound 0.03162 µM)?
Its relative viability is 0.633.

And the relative viability (Nelarabine + Lapatinib; first compound 0.1 µM)?
The relative viability was 0.692.

What about the relative viability (Nelarabine + Lapatinib; first compound 0.3162 µM) of the same cell line?
Its relative viability is 0.775.

What about the relative viability (Nelarabine + Lapatinib; first compound 1 µM) of the same cell line?
The relative viability was 0.788.

What about the relative viability (Nelarabine + Vorinostat; first compound 0.01 µM) of the same cell line?
Its relative viability is 0.993.

What about the relative viability (Nelarabine + Vorinostat; first compound 0.03162 µM) of the same cell line?
The relative viability was 0.814.

And the relative viability (Nelarabine + Vorinostat; first compound 0.1 µM)?
Its relative viability is 0.889.

What about the relative viability (Nelarabine + Vorinostat; first compound 0.3162 µM) of the same cell line?
The relative viability was 0.931.

And the relative viability (Nelarabine + Vorinostat; first compound 1 µM)?
The relative viability was 0.873.

What does the source list for HCC-78?
relative viability (Adavosertib + Phenformin; first compound 0.01 µM): 0.582; relative viability (Adavosertib + Phenformin; first compound 0.03162 µM): 0.744; relative viability (Adavosertib + Phenformin; first compound 0.1 µM): 0.821; relative viability (Adavosertib + Phenformin; first compound 0.3162 µM): 0.704; relative viability (Adavosertib + Vorinostat; first compound 0.01 µM): 0.492; relative viability (Adavosertib + Vorinostat; first compound 0.03162 µM): 0.437; relative viability (Adavosertib + Vorinostat; first compound 0.1 µM): 0.473; relative viability (Adavosertib + Vorinostat; first compound 0.3162 µM): 0.42; relative viability (Nelarabine + Lapatinib; first compound 0.01 µM): 0.731; relative viability (Nelarabine + Lapatinib; first compound 0.03162 µM): 0.779; relative viability (Nelarabine + Lapatinib; first compound 0.3162 µM): 0.902; relative viability (Nelarabine + Lapatinib; first compound 1 µM): 0.631; relative viability (Nelarabine + Vorinostat; first compound 0.01 µM): 0.601; relative viability (Nelarabine + Vorinostat; first compound 0.03162 µM): 0.475; relative viability (Nelarabine + Vorinostat; first compound 0.3162 µM): 0.427; relative viability (Nelarabine + Vorinostat; first compound 1 µM): 0.556

What does the source list for NCI-H322M?
relative viability (Adavosertib + Phenformin; first compound 0.01 µM): 0.737; relative viability (Adavosertib + Phenformin; first compound 0.03162 µM): 0.759; relative viability (Adavosertib + Phenformin; first compound 0.1 µM): 0.656; relative viability (Adavosertib + Phenformin; first compound 0.3162 µM): 0.342; relative viability (Adavosertib + Vorinostat; first compound 0.01 µM): 0.782; relative viability (Adavosertib + Vorinostat; first compound 0.03162 µM): 0.842; relative viability (Adavosertib + Vorinostat; first compound 0.1 µM): 0.722; relative viability (Adavosertib + Vorinostat; first compound 0.3162 µM): 0.564; relative viability (Nelarabine + Lapatinib; first compound 0.01 µM): 0.653; relative viability (Nelarabine + Lapatinib; first compound 0.03162 µM): 0.581; relative viability (Nelarabine + Lapatinib; first compound 0.1 µM): 0.529; relative viability (Nelarabine + Lapatinib; first compound 0.3162 µM): 0.604; relative viability (Nelarabine + Lapatinib; first compound 1 µM): 0.602; relative viability (Nelarabine + Vorinostat; first compound 0.01 µM): 0.942; relative viability (Nelarabine + Vorinostat; first compound 0.03162 µM): 0.856; relative viability (Nelarabine + Vorinostat; first compound 0.1 µM): 0.954; relative viability (Nelarabine + Vorinostat; first compound 0.3162 µM): 0.943; relative viability (Nelarabine + Vorinostat; first compound 1 µM): 0.802

Which results are given for HCC-15?
relative viability (Adavosertib + Phenformin; first compound 0.01 µM): 0.474; relative viability (Adavosertib + Phenformin; first compound 0.03162 µM): 0.471; relative viability (Adavosertib + Phenformin; first compound 0.1 µM): 0.494; relative viability (Adavosertib + Phenformin; first compound 0.3162 µM): 0.504; relative viability (Adavosertib + Vorinostat; first compound 0.01 µM): 0.908; relative viability (Adavosertib + Vorinostat; first compound 0.03162 µM): 0.823; relative viability (Adavosertib + Vorinostat; first compound 0.1 µM): 0.86; relative viability (Adavosertib + Vorinostat; first compound 0.3162 µM): 0.829; relative viability (Nelarabine + Lapatinib; first compound 0.01 µM): 0.987; relative viability (Nelarabine + Lapatinib; first compound 0.03162 µM): 0.798; relative viability (Nelarabine + Lapatinib; first compound 0.1 µM): 0.928; relative viability (Nelarabine + Lapatinib; first compound 0.3162 µM): 0.883; relative viability (Nelarabine + Lapatinib; first compound 1 µM): 0.9; relative viability (Nelarabine + Vorinostat; first compound 0.01 µM): 1.1; relative viability (Nelarabine + Vorinostat; first compound 0.03162 µM): 0.905; relative viability (Nelarabine + Vorinostat; first compound 0.1 µM): 0.829; relative viability (Nelarabine + Vorinostat; first compound 0.3162 µM): 0.887; relative viability (Nelarabine + Vorinostat; first compound 1 µM): 0.973

For A-427, which relative viability (Adavosertib + Phenformin; first compound 0.01 µM) is on record?
The relative viability was 0.337.

What about the relative viability (Adavosertib + Phenformin; first compound 0.03162 µM) of the same cell line?
The relative viability was 0.289.

And the relative viability (Adavosertib + Phenformin; first compound 0.1 µM)?
The relative viability was 0.297.

What about the relative viability (Adavosertib + Phenformin; first compound 0.3162 µM) of the same cell line?
Its relative viability is 0.255.

And the relative viability (Adavosertib + Vorinostat; first compound 0.01 µM)?
The relative viability was 0.872.

What about the relative viability (Adavosertib + Vorinostat; first compound 0.03162 µM) of the same cell line?
Its relative viability is 0.865.

What about the relative viability (Adavosertib + Vorinostat; first compound 0.1 µM) of the same cell line?
Its relative viability is 0.831.

And the relative viability (Adavosertib + Vorinostat; first compound 0.3162 µM)?
The relative viability was 0.705.

And the relative viability (Nelarabine + Lapatinib; first compound 0.01 µM)?
The relative viability was 1.15.

What about the relative viability (Nelarabine + Lapatinib; first compound 0.03162 µM) of the same cell line?
Its relative viability is 0.973.

And the relative viability (Nelarabine + Lapatinib; first compound 0.1 µM)?
The relative viability was 1.14.

And the relative viability (Nelarabine + Lapatinib; first compound 0.3162 µM)?
The relative viability was 1.1.

And the relative viability (Nelarabine + Lapatinib; first compound 1 µM)?
Its relative viability is 1.11.

And the relative viability (Nelarabine + Vorinostat; first compound 0.01 µM)?
Its relative viability is 0.856.

And the relative viability (Nelarabine + Vorinostat; first compound 0.03162 µM)?
The relative viability was 0.93.

What about the relative viability (Nelarabine + Vorinostat; first compound 0.1 µM) of the same cell line?
Its relative viability is 0.895.

What about the relative viability (Nelarabine + Vorinostat; first compound 0.3162 µM) of the same cell line?
The relative viability was 0.854.

What about the relative viability (Nelarabine + Vorinostat; first compound 1 µM) of the same cell line?
The relative viability was 0.844.

With NCI-H2228 as the cell line, how does the relative viability (Adavosertib + Phenformin; first compound 0.01 µM) read?
The relative viability was 0.252.

What about the relative viability (Adavosertib + Phenformin; first compound 0.03162 µM) of the same cell line?
The relative viability was 0.27.

And the relative viability (Adavosertib + Phenformin; first compound 0.1 µM)?
Its relative viability is 0.257.

What about the relative viability (Adavosertib + Phenformin; first compound 0.3162 µM) of the same cell line?
Its relative viability is 0.243.

And the relative viability (Adavosertib + Vorinostat; first compound 0.03162 µM)?
Its relative viability is 0.606.

What about the relative viability (Adavosertib + Vorinostat; first compound 0.1 µM) of the same cell line?
Its relative viability is 0.536.

What about the relative viability (Adavosertib + Vorinostat; first compound 0.3162 µM) of the same cell line?
The relative viability was 0.294.

What about the relative viability (Nelarabine + Lapatinib; first compound 0.01 µM) of the same cell line?
The relative viability was 1.1.

What about the relative viability (Nelarabine + Lapatinib; first compound 0.03162 µM) of the same cell line?
Its relative viability is 1.1.

And the relative viability (Nelarabine + Lapatinib; first compound 0.3162 µM)?
Its relative viability is 0.974.

And the relative viability (Nelarabine + Lapatinib; first compound 1 µM)?
Its relative viability is 0.977.

And the relative viability (Nelarabine + Vorinostat; first compound 0.01 µM)?
Its relative viability is 0.634.

And the relative viability (Nelarabine + Vorinostat; first compound 0.03162 µM)?
The relative viability was 0.569.

And the relative viability (Nelarabine + Vorinostat; first compound 0.1 µM)?
Its relative viability is 0.387.

And the relative viability (Nelarabine + Vorinostat; first compound 0.3162 µM)?
The relative viability was 0.495.

What about the relative viability (Nelarabine + Vorinostat; first compound 1 µM) of the same cell line?
Its relative viability is 0.792.

What does the source list for CAL-12T?
relative viability (Adavosertib + Phenformin; first compound 0.01 µM): 0.576; relative viability (Adavosertib + Phenformin; first compound 0.03162 µM): 0.545; relative viability (Adavosertib + Phenformin; first compound 0.1 µM): 0.573; relative viability (Adavosertib + Phenformin; first compound 0.3162 µM): 0.336; relative viability (Adavosertib + Vorinostat; first compound 0.01 µM): 0.797; relative viability (Adavosertib + Vorinostat; first compound 0.03162 µM): 0.889; relative viability (Adavosertib + Vorinostat; first compound 0.1 µM): 0.821; relative viability (Adavosertib + Vorinostat; first compound 0.3162 µM): 0.741; relative viability (Nelarabine + Lapatinib; first compound 0.01 µM): 0.699; relative viability (Nelarabine + Lapatinib; first compound 0.03162 µM): 0.743; relative viability (Nelarabine + Lapatinib; first compound 0.1 µM): 0.611; relative viability (Nelarabine + Lapatinib; first compound 0.3162 µM): 0.685; relative viability (Nelarabine + Lapatinib; first compound 1 µM): 0.688; relative viability (Nelarabine + Vorinostat; first compound 0.01 µM): 0.987; relative viability (Nelarabine + Vorinostat; first compound 0.03162 µM): 0.78; relative viability (Nelarabine + Vorinostat; first compound 0.1 µM): 0.764; relative viability (Nelarabine + Vorinostat; first compound 0.3162 µM): 0.938; relative viability (Nelarabine + Vorinostat; first compound 1 µM): 0.997

— the supplement of paper PMC10307832
